The subject of one data set is Fancd2-deficient mice. The experiment in a line: pIpC physiological stress-induced bone marrow failure, LT-HSC DNA damage. Format: in vivo, mouse. The source says: FIG. 13. […] Mice were pretreated in vivo with either no Tgfβ inhibitor, the neutralizing antibody to Tgfβ 1, 2, 3, or the Tgfβ receptor kinase inhibitor, Galunisertib.
The test system of the next data set is Fancd2−/− stromal cells. The experiment in a line: Immunoblot of phosphorylated Erk1/2 in bone marrow stromal cells. The format is cell-based, mouse. As to the method:
FIG. 2. Characterization of FA murine primary bone marrow stromal fibroblast. • A) Survival of Fancd2+/+ or Fancd2−/− stromal cells in the presence of MMC. Data are shown in triplicate. […] (Left panel) Active mouse Tgfβ1 serum levels in the culture supernatant of Fancd2+/+ or Fancd2−/− stromal cells were evaluated by ELISA. (Right panel) qRT-PCR analysis of Tgfb1 mRNA expression. Data are shown the average of three independent experiments. Error bars represent s.e.m. • C) Immunoblots of phosphorylated Erk1/2 in stromal cells treated with Tgfβ for the indicated time.
FIG. 3. […] Error bars represent s.e.m.
Human FA cells EUFA316 were grown in RPMI1640 (Life Technologies) supplemented with 10% fetal calf serum. Fancd2^+/+ and Fancd2^−/− bone marrow stromal cells were established by culturing whole bone marrow in DMEM with 10% FBS. Fancd2^−/− stromal cells were complemented with human FANCD2 by retroviral transduction of FANCD2 cDNA in pMMP-PURO vector, followed by selection in puromycin. Whole cell extracts were prepared by lysing cells in radioimmunoprecipitation assay buffer (50 mmol/L Tris, pH 7.3, 150 mmol/L NaCl, 1 mmol/L EDTA, 1% Triton X-100, 0.5% Na-deoxycholate, and 0.1% SDS) with complete protease inhibitor, NaVO4, and NaF.
(In western blotting, separated proteins are transferred to a membrane and probed.)

Data set [1] relates to Fancd2−/− BM Stromal cells. Nature of the data set: Colony forming capacity of bone marrow stromal cells. Format: cell-based, mouse. To be noted: 1 μM Mek-i. On the procedure: FIG. 3. […] Fancd2+/+ stromal cells shown as a control. • B) Colony forming capacity of Fancd2−/− BM Stromal cells is improved by treatment with 1 μM Mek-i. • C) Immunoblot analysis showing deletion of Tgfbr1, Smad3 and p53 in murine Fancd2+/+ and Fancd2−/− stromal cells • D) Survival of Fancd2−/− stromal cells with deletion of Tgfbr1, Smad3 or p53 in presence of MMC. Error bars represent s.e.m.
FIG. 9. […] Representative image of colonies of Fancd2+/+ and Fancd2−/− cells incubated with or without 1 μM Mek inhibitor.
(§1) For survival assays, cells were seeded at a density of 1×10^3 cells per well in 96-well plates. After 72 hours of culture in indicated concentrations of MMC or post exposure of acetaldehyde, viability was assessed using CellTiterGlo reagent (Promega). In order to assess clonogenicity, cells were seeded at a low density (500-1000 cells per well) in 6-well plates and allowed to form colonies. The cells were then fixed in methanol/20% acetic acid and stained with 1% crystal violet. Colony formation was assessed by solubilizing crystal violet stain with methanol and quantifying UV absorbance for each condition.

Data set [2] has as its system EUFA316 (FA-G fibroblasts). Nature of the data set: MMC sensitivity survival assay of FA cells with TGFβ pathway inhibitors. Format: cell-based, human. On the procedure:
FIG. 1. TGFβ pathway disruption enhances FA cellular growth. • A) RIGER P value analysis to identify top candidate genes. • B) Clonogenic survival of GM6914 (FA-A fibroblasts) and FANCA-corrected GM6914 cells after shRNA mediated knockdown of SMAD3. Cells were treated with increasing doses of MMC and plated for 10-12 days. The average of two experiments is presented; error bars represent s.e.m.
as §1
For survival assays, cells were seeded at a density of 1×10^3 cells per well in 96-well plates. After 3-6 days of culture in indicated concentrations of MMC or post exposure of acetaldehyde, viability was assessed using CellTiterGlo reagent (Promega). In order to assess clonogenicity, cells were seeded at a low density (500-1000 cells per well) in 6-well plates and allowed to form colonies. The cells were then fixed in methanol/20% acetic acid and stained with 1% crystal violet. Colonies were counted after crystal violet staining.

Data set [3] deals with U2OS cells. The experiment in a line: NHEJ reporter assay. Format: cell-based, human. The settings on record: template reporter assay. (Reporter assays use an easily measured gene product as a stand-in for the process of interest.)
The subject of data set [4] is U2OS cells. The experiment in a line: Immunoblot of DNA-PK phosphorylation. Format: cell-based, human.
The test system of data set [5] is primary HSPCs from bone marrow of FA patients. Nature of the data set: Colony forming assay of primary CD34+ bone marrow cells from FA patients. Format: cell-based, human. The settings on record: methylcellulose, colonies after 10 days. The source says:
(§2) (A) Hierarchical clustering and heat-map of the expression of TGF-β pathway genes in human FA and non-FA bone marrow samples using gene set enrichment analysis. (B-F) Colony forming assays using primary CD34+ bone marrow cells from five FA patients. Cells were transduced with lentiviruses encoding shControl, shTP53 or shSMAD3 followed by selection for puromycin resistance and then plated in methylcellulose cultures or the cells were directly plated in methylcellulose cultures containing GC1008 for colony growth. The hematopoietic colonies were counted after 10 days in culture. (G-I) Colony forming assays using FA-like CD34+ cells from human cord blood. As shown in the schematic (G), FA-like CD34+ cells were generated by transducing human cord blood CD34+ cells with lentivirus encoding shFANCD2. […] Hematopoietic colonies were counted after 10-14 days in culture (I). (J) Colony forming assay of FA-like CD34+ cells with GC1008 treatment. Hematopoietic colonies were counted after 10-14 days in culture. […] Human cells were analyzed in the peripheral blood at 2 weeks post transplantation. […] Representative images (L) and quantification (M) of γH2AX foci in cord blood CD34+ cells transduced with lentivirus encoding shFANCD2 or shControl. […] Cells were then analyzed for γH2AX foci by immunofluorescence. Thirty to hundred cells with more than 5 foci were counted for each sample. […]

The test system of data set [6] is FA-like CD34+ cells from human cord blood. The experiment in a line: Colony forming assay of FA-like CD34+ cells. The format is cell-based. The settings on record: GC1008 10 μg/mL, colonies after 10-14 days.
Description: as §2, with “blood.” for “blood. As shown in the schematic (G), FA-like CD34+ cells were generated by transducing human cord blood CD34+ cells with lentivirus encoding shFANCD2.”, “(J) Colony forming assay of FA-like CD34+ cells with GC1008 treatment.” left out
(§3) (Dataset: GSE16334). […] Cells were cultured in methylcellulose medium post MMC treatment (2 h at 100 ng/mL) and hematopoietic colonies were counted after 10 days in culture. […] Hematopoietic colonies were counted after 10-14 days in culture. […]

In data set [7] the test system is FA-like CD34+ cells in NSG mice. The experiment in a line: In vivo xenograft assay of FA-like CD34+ cells. The settings on record: 10 mg/kg, 3 doses per week for 2 weeks, peripheral blood at 2 and 8 weeks. Further details: species or system mouse.
Description: as §2, with “blood.” for “blood. As shown in the schematic (G), FA-like CD34+ cells were generated by transducing human cord blood CD34+ cells with lentivirus encoding shFANCD2.”, “(J) Colony forming assay of FA-like CD34+ cells with GC1008 treatment.” left out
as §3

Another data set deals with FA-like HSPCs. Nature of the data set: γH2AX and 53BP1 foci after MMC in FA-like HSPCs. Format: cell-based, human.
Description: as §2, with “(J) Colony forming assay of FA-like CD34+ cells with GC1008 treatment.” left out
HSPCs. […] Representative images (F) and quantification (G) of 53BP1 foci are shown.

The test system of a further data set is Fancd2−/− HSPCs. The experiment in a line: Clonogenic assay of HSPCs in methylcellulose. Format: cell-based, mouse. The settings on record: TGF-β1 1 ng/mL, Ab 10 μg/mL or SD208 10 μM; colonies after 7-10 days. As to the method: (A) Expression of phospho-Smad2/3 proteins in HSPCs from WT and Fancd2−/− mice as detected by flow cytometric analysis. (B) Quantification of mean fluorescence intensity (MFI) of phospho-Smad2/3 staining by flow cytometric analysis shown in (A) in HSPCs from WT and Fancd2−/− mice. (C) Fancd2−/− HSPCs are more sensitive to TGF-β1 than WT HSPCs. Sorted Lin− cells from WT or Fancd2−/− mice were exposed to TGF-β1. After 5 days in culture, LSK cells were analyzed by flow cytometry and quantified. Data are shown after normalizing to untreated WT group. […] Sorted Lin− cells from WT and Fancd2−/− mice were exposed to TGF-β1 (1 ng/mL) with or without TGF-beta 1,2,3 Ab (10 μg/mL) or SD208 (10 μM), and viable cells were counted after 5 days in culture. Data shown are after normalizing to untreated WT group. Error bars represent mean±s.e.m. (F) Clonogenic assay of WT and Fancd2−/− HSPCs treated with TGF-β1, TGF-beta 1, 2, 3 Ab or SD208. […] Hematopoietic colonies were counted after 7-10 days in culture. […] (I) Representative FACS plots of LSK cells analyzed by flow cytometry for GFP expression after 5 days in vitro culture in stem cell culture medium. […] Luciferase activity was measured. (L) Binding of FANCD2 to SMAD1 promoter (region −2108 to −1950 bp) upon DNA damage as detected by ChIP assay using anti-FANCD2 antibody in corrected GM6914 (+FANCA) but not GM6914 (+Vector) fibroblast cells. […]

The mark [8] stands for this setting: mice pretreated in vivo, LT-HSCs isolated.

Entries after “also recorded” stand apart in the source; their conditions may differ.

As to `Cc1cccc(-c2nn3c(c2-c2ccnc4ccc(C(N)=O)cc24)CCC3)n1` [Galunisertib], in the data set on Fancd2-deficient mice (setting [8]), the “pIpC-induced DNA damage in LT-HSCs, comet assay” value is reported as “rescued the pIpC-induced DNA damage” and the “pIpC-induced DNA damage, gamma H2AX foci” value is listed as “rescued the pIpC-induced DNA damage”. Moreover, the “physiological stress-induced bone marrow failure” value in the data set with Fancd2-deficient mice (mice, pIpC, pretreated in vivo) is “rescues physiological stress-induced bone marrow failure”.
Regarding `O=C(NOC[C@H](O)CO)c1ccc(F)c(F)c1Nc1ccc(I)cc1F` [PD0325901], the Erk1/2 phosphorylation result with Fancd2−/− stromal cells (mouse stromal cells exposed to MEK inhibitor) is “inhibition of Erk1/2 phosphorylation; also recorded: reduces p-Erk1/2 expression”. Further, the “clonogenicity / colony forming capacity of Fancd2−/− stromal cells” value in [1] is “significantly increased the clonogenicity”; in [1] (listed as Mek-i), “improved”.
Turning to `COc1cc2c(cc1OC)CN(C(=O)/C=C/c1c(-c3ccccc3)n(C)c3ncccc13)CC2` [SIS3], the “FA cells survival in the presence of MMC” value in data set [2] (FA cell lines with inhibitor) is on record as “improved FA cells survival in the presence of MMC”. In addition, the “cytotoxicity of corrected FA cells” value in [2] (corrected FA cells) is recorded as “do not significantly alter cytotoxicity of corrected FA cells”. Besides, in the data set on U2OS cells [3], the NHEJ activity entry is “decreased NHEJ”. Also, the “phosphorylation of DNA-PK” value in the data set with U2OS cells [4] is given as “blocks phosphorylation of DNA-PK”.
With “GC1008: anti-human TGF-β neutralizing antibody”, the “clonogenic defects of primary HSPCs from FA patients” value in data set [5] was “rescued the clonogenic defects”. Besides, in data set [6], the “clonogenic capacity of FA-like HSPCs” value was “markedly rescuing the clonogenic capacity”. In addition, the “engraftment of primary FA-like CD34+ cells” value in data set [7] is “enhanced the engraftment”. Further, in the data set on FA-like HSPCs (MMC 100 ng/mL 2 h, 24 h recovery), the “number of FA-like HSPCs with 53BP1 foci” value is on record as “significantly reduced”. Moreover, in the data set with FA-like HSPCs (MMC 100 ng/ml 2 hrs, 24 hrs recovery), the “number of FA-like HSPCs with γH2AX foci” value is recorded as “significantly reduced”.
Regarding “TGF-β1: recombinant TGFβ1 cytokine (human from ProPeptide, mouse from R&D)”, the “pErk1/2 after mTGFβ1 exposure” value in the data set with Fancd2−/− stromal cells (FA stromal cells) is “further activated pErk1/2”. The “phosphorylation of DNA-PK” value with U2OS cells [4] was “activated phosphorylation of DNA-PK”. Besides, the “clonogenic ability of Fancd2−/− HSPCs” value with Fancd2−/− HSPCs was “inhibited”.

These data come from US12558369B2, “Compositions and methods of treating Fanconi Anemia” (Dana-Farber Cancer Institute, Inc., priority 2015, dated 2026).
